pIC50: −log10 of the molar value.
Target: T1, Axl (Homo sapiens, UniProt P30530)
T1 sequence (P30530 26-894): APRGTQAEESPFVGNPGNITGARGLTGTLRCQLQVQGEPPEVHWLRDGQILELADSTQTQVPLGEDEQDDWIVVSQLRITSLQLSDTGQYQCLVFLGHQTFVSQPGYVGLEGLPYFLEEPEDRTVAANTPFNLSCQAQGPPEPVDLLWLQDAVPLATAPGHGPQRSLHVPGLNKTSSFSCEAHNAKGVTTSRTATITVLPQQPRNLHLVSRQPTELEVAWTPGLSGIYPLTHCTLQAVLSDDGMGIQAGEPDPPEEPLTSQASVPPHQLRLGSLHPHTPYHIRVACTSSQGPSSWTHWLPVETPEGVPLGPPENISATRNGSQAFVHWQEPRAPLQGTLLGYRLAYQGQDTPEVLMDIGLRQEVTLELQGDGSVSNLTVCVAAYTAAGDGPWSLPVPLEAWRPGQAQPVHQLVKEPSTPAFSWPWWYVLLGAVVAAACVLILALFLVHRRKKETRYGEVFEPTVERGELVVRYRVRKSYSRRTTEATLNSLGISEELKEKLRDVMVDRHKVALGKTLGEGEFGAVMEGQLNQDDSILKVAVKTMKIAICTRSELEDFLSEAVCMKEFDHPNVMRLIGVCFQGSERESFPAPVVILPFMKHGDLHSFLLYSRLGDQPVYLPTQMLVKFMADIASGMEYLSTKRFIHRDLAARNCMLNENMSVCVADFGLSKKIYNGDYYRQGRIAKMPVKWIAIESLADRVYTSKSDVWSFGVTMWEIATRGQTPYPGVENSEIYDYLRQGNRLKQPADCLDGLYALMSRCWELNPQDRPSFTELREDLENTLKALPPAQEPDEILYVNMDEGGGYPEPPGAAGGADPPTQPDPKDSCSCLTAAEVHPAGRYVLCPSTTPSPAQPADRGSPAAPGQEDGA
Assay: Axl NanoBRET intracellular kinase assay (intracellular binding, Cell Binding)
Parameters: host or cells: HEK-293
Conditions: HEK-293 cells transfected with Axl-NanoLuc fusion vector; 0.35 μM K-5 NanoBRET tracer
Method: Axl NanoBRET™ intracellular kinase assay (Promega, N2540) was performed according to manufacturer's recommendation. In brief, HEK-293 cells are transiently transfected with Axl-NanoLuc fusion vector (Promega, NV1071), utilizing Fugene HD transfection reagent (Promega, E2311) a day before experiment following manufacturer's recommendation.
The day of the assay, the cells were collected and resuspended in Opti-MEM media (ThermoFisher, 31985070) at 2e5 cells/mL concentration. Testing compounds were serial diluted and dispensed into a white 384 well polystyrene plate at 200 nL in 100% DMSO. 40 μL of resuspended cells is then added per well for a final condition of 8K cells/well with 0.5% DMSO. After one-hour compound pre-incubation at 37° C. and 5% CO2, cells were further incubated with 0.35 μM K-5 NanoBRET tracer for two-hours at 37° C. and 5% CO2. […] of 3× substrate plus Inhibitor solution was prepared according to kits manual and added to the cells followed by a 30 second pulse centrifugation spin. The plate was then immediately read utilizing an Envision (Perkin Elmer) plate reader. The BRET signal is measured by taking the ratio of the emissions reading at 610 nm and 450 nm. Compound binding is based on the decrease BRET signal caused by the displacement of the K-5 tracer. […] IC50 value of compounds was determined by 4-parameter non-linear regression fitting of percent activity in GraphPad Prism software.

`CC1(N2CCC[C@H]2CO)CCc2ccc(-c3cnc4[nH]nc(-c5ccc(S(=O)(=O)C6CC6)cc5)c4c3)cc2CC1` (stereo partly drawn) [Example 4, [(2S)-1-(2-{3-[4-(Cyclopropanesulfonyl)phenyl]-1H-pyrazolo[3,4-b]pyridin-5-yl}-7-methyl-6,7,8,9-tetrahydro-5H-benzo[7]annulen-7-yl)pyrrolidin-2-yl]methanol] and `C[C@H]1CCCN1C1(C)CCc2ccc(-c3cnc4[nH]nc(-c5ccc(S(=O)(=O)C6CC6)cc5)c4c3)cc2CC1` (stereo partly drawn) [Example 5, (2S)-1-(2-{3-[4-(Cyclopropanesulfonyl)phenyl]-1H-pyrazolo[3,4-b]pyridin-5-yl}-7-methyl-6,7,8,9-tetrahydro-5H-benzo[7]annulen-7-yl)-2-methylpyrrolidine] cannot be ordered by pIC50: over 7.00 for the first, over 7.00 for the second.

First: CCC1(N2CCC[C@H]2C)CCc2ccc(-c3cnc4[nH]nc(-c5ccc(S(=O)(=O)C6CC6)cc5)c4c3)cc2CC1 (stereo partly drawn) [Example 6, (2R)-1-(2-{3-[4-(Cyclopropanesulfonyl)phenyl]-1H-pyrazolo[3,4-b]pyridin-5-yl}-7-ethyl-6,7,8,9-tetrahydro-5H-benzo[7]annulen-7-yl)-2-methylpyrrolidine]
Second: CC1(N2CCC2)CCc2ccc(-c3cnc4[nH]nc(-c5ccc(S(=O)(=O)C6CC6)cc5)c4c3)cc2CC1 (centres unmarked) [Example 7, 1-(2-{3-[4-(Cyclopropanesulfonyl)phenyl]-1H-pyrazolo[3,4-b]pyridin-5-yl}-7-methyl-6,7,8,9-tetrahydro-5H-benzo[7]annulen-7-yl)azetidine]
The pIC50 of the first is lower: 6.00 to 7.00 for the first, over 7.00 for the second. The second is the more potent here.

First: C[C@@H]1CCCN1C1(C)CCc2ccc(-c3cnc4[nH]nc(-c5ccc(S(=O)(=O)C(F)(F)F)cc5)c4c3)cc2CC1 (stereo partly drawn) [Example 8, (2R)-2-Methyl-1-{7-methyl-2-[3-(4-trifluoromethanesulfonylphenyl)-1H-pyrazolo[3,4-b]pyridin-5-yl]-6,7,8,9-tetrahydro-5H-benzo[7]annulen-7-yl}pyrrolidine]
Second: CC(C)(O)c1ccc(-c2n[nH]c3ncc(-c4ccc5c(c4)CCN(C4CCCC4)CC5)cc23)cc1C(F)(F)F [Example 16, 2-{4-[5-(3-Cyclopentyl-2,3,4,5-tetrahydro-1H-3-benzazepin-7-yl)-1H-pyrazolo[3,4-b]pyridin-3-yl]-2-(trifluoromethyl)phenyl}propan-2-ol]
The pIC50 of the first is lower: under 6.00 for the first, 6.00 to 7.00 for the second.

Compared with `CC(C)(O)c1ccc(-c2n[nH]c3ncc(-c4ccc5c(c4)CCC(N4CCCC4)CC5)cc23)cn1` (centres unmarked) [Example 9, 2-(5-{5-[7-(Pyrrolidin-1-yl)-6,7,8,9-tetrahydro-5H-benzo[7]annulen-2-yl]-1H-pyrazolo[3,4-b]pyridin-3-yl}pyridin-2-yl)propan-2-ol], `CC(C)(O)c1ccc(-c2n[nH]c3ncc(-c4ccc5c(c4)CCN(C4CCCC4)CC5)cc23)cn1` [Example 10, 2-{5-[5-(3-Cyclopentyl-2,3,4,5-tetrahydro-1H-3-benzazepin-7-yl)-1H-pyrazolo[3,4-b]pyridin-3-yl]pyridin-2-yl}propan-2-ol] is lower in pIC50: over 7.00 for the first, 6.00 to 7.00 for the second. The first is the more potent here.

Compared with `CC(C)(O)c1ccc(-c2n[nH]c3ncc(-c4ccc5c(c4)CCC(N4CCCC4)CC5)cc23)cc1Cl` (centres unmarked) [Example 11, 2-(2-Chloro-4-{5-[7-(pyrrolidin-1-yl)-6,7,8,9-tetrahydro-5H-benzo[7]annulen-2-yl]-1H-pyrazolo[3,4-b]pyridin-3-yl}phenyl)propan-2-ol], `CC(C)(O)c1ccc(-c2n[nH]c3ncc(-c4ccc5c(c4)CCN(C4CCCC4)CC5)cc23)cc1Cl` [Example 12, 2-{2-Chloro-4-[5-(3-cyclopentyl-2,3,4,5-tetrahydro-1H-3-benzazepin-7-yl)-1H-pyrazolo[3,4-b]pyridin-3-yl]phenyl}propan-2-ol] is lower in pIC50: over 7.00 for the first, 6.00 to 7.00 for the second.

Compound `CC(C)(O)c1ccc(-c2n[nH]c3ncc(-c4ccc5c(c4)CCN(C4CCCC4)CC5)cc23)c(F)c1` [Example 17, 2-{4-[5-(3-Cyclopentyl-2,3,4,5-tetrahydro-1H-3-benzazepin-7-yl)-1H-pyrazolo[3,4-b]pyridin-3-yl]-3-fluorophenyl}propan-2-ol] has a pIC50 of 6.00 to 7.00.

From US20240246967A1, “AXL COMPOUNDS” (ARCUS BIOSCIENCES, INC., priority 2021, published 2024)
